Measurements published in patent US10986838B2, “Herbicides” (SYNGENTA PARTICIPATIONS AG, priority 2016, dated 2021).

Experiments:
Type in all cases: in vivo
[1] = test system: Alopecurus myosuroides (ALOMY); test: Pre-emergence herbicidal activity (B1); conditions: Test 1a, 1000 g/ha, evaluated after 13 days, 5=total damage to plant, 0=no damage to plant
Method: (§1) B1 Pre-Emergence Herbicidal Activity Seeds of a variety of test species were sown in standard soil in pots: Triticum aestivium (TRZAW), Avena fatua (AVEFA), Alopecurus myosuroides (ALOMY), Echinochloa crus-galli (ECHCG), Lolium perenne (LOLPE), Zea Mays (ZEAMX), Abutilon theophrasti (ABUTH), Amaranthus retroflexus (AMARE) and Setaria faberi (SETFA). After cultivation for one day (pre-emergence) under controlled conditions in a glasshouse (at 24/16° C., day/night; 14 hours light; 65% humidity), the plants were sprayed with an aqueous spray solution derived from the formulation of the technical active ingredient in acetone/water (50:50) solution containing 0.5% Tween 20 (polyoxyethelyene sorbitan monolaurate, CAS RN 9005-64-5). The test plants were then grown in a glasshouse under controlled conditions (at 24/16° C., day/night; 14 hours light; 65% humidity) and watered twice daily. After 13 days, the test was evaluated (5=total damage to plant; 0=no damage to plant). Tables B1a and B1b Control of Weed Species by Compound of Formula (I) after Pre-Emergence Application

[2] = test system: Avena fatua (AVEFA); test: Pre-emergence herbicidal activity (B1); conditions: Test 1a, 1000 g/ha, evaluated after 13 days, 5=total damage to plant, 0=no damage to plant
Method: as §1

[3] = test system: Echinochloa crus-galli (ECHCG); test: Pre-emergence herbicidal activity (B1); conditions: Test 1a, 1000 g/ha, evaluated after 13 days, 5=total damage to plant, 0=no damage to plant
Method: as §1

[4] = test system: Lolium perenne (LOLPE); test: Pre-emergence herbicidal activity (B1); conditions: Test 1a, 1000 g/ha, evaluated after 13 days, 5=total damage to plant, 0=no damage to plant
Method: as §1

[5] = test system: Setaria faberi (SETFA); test: Pre-emergence herbicidal activity (B1); conditions: Test 1a, 1000 g/ha, evaluated after 13 days, 5=total damage to plant, 0=no damage to plant
Method: as §1

[6] = test system: Triticum aestivium (TRZAW); test: Pre-emergence herbicidal activity (B1); conditions: Test 1a, 1000 g/ha, evaluated after 13 days, 5=total damage to plant, 0=no damage to plant
Method: as §1

[7] = test system: Alopecurus myosuroides (ALOMY); test: Post-emergence herbicidal activity (B2); conditions: Test B2a, 1000 g/ha, evaluated after 13 days, 5=total damage to plant, 0=no damage to plant
Method: (§2) B2 Post-Emergence Herbicidal Activity Seeds of a variety of test species were sown in standard soil in pots: Triticum aestivium (TRZAW), Avena fatua (AVEFA), Alopecurus myosuroides (ALOMY), Echinochloa crus-galli (ECHCG), Lolium perenne (LOLPE), Zea Mays (ZEAMX), Abutilon theophrasti (ABUTH), Amaranthus retroflexus (AMARE) and Setaria faberi (SETFA). After 8 days cultivation (post-emergence) under controlled conditions in a glasshouse (at 24/16° C., day/night; 14 hours light; 65% humidity), the plants were sprayed with an aqueous spray solution derived from the formulation of the technical active ingredient in acetone/water (50:50) solution containing 0.5% Tween 20 (polyoxyethelyene sorbitan monolaurate, CAS RN 9005-64-5). The test plants were then grown in a glasshouse under controlled conditions (at 24/16° C., day/night; 14 hours light; 65% humidity) and watered twice daily. After 13 days, the test was evaluated (5=total damage to plant; 0=no damage to plant). Tables B2a and B2b Control of Weed Species by Compound of Formula (I) after Post-Emergence Application

[8] = test system: Avena fatua (AVEFA); test: Post-emergence herbicidal activity (B2); conditions: Test B2a, 1000 g/ha, evaluated after 13 days, 5=total damage to plant, 0=no damage to plant
Method: as §2

[9] = test system: Echinochloa crus-galli (ECHCG); test: Post-emergence herbicidal activity (B2); conditions: Test B2a, 1000 g/ha, evaluated after 13 days, 5=total damage to plant, 0=no damage to plant
Method: as §2

[10] = test system: Lolium perenne (LOLPE); test: Post-emergence herbicidal activity (B2); conditions: Test B2a, 1000 g/ha, evaluated after 13 days, 5=total damage to plant, 0=no damage to plant
Method: as §2

[11] = test system: Setaria faberi (SETFA); test: Post-emergence herbicidal activity (B2); conditions: Test B2a, 1000 g/ha, evaluated after 13 days, 5=total damage to plant, 0=no damage to plant
Method: as §2

[12] = test system: Triticum aestivium (TRZAW); test: Post-emergence herbicidal activity (B2); conditions: Test B2a, 1000 g/ha, evaluated after 13 days, 5=total damage to plant, 0=no damage to plant
Method: as §2

SMILES | ALOMY damage score [1] | AVEFA damage score [2] | ECHCG damage score [3] | LOLPE damage score [4] | SETFA damage score [5] | TRAZW damage score [6] | ALOMY damage score [7] | AVEFA damage score [8] | ECHCG damage score [9] | LOLPE damage score [10] | SETFA damage score [11] | TRAZW damage score [12]
CNc1ccc(-c2cncc(C#N)c2)nc1C(F)(F)F [Compound A1] | 0 | 1 | 1 | 1 | 4 | 0 | 0 | 3 | 3 | 2 | 5 | 2
N#Cc1cncc(-c2ccc(N)c(C(F)(F)F)n2)c1 [Compound A2] | 0 | 0 | 2 | 1 | 4 | 0 | 1 | 3 | 4 | 2 | 5 | 0
Nc1ccc(-c2cncc(Cl)c2)nc1C(F)(F)F [Compound A3] | 0 | 1 | 3 | 1 | 5 | 0 | 1 | 3 | 3 | 2 | 4 | 0
Cc1nc(-c2cncc(OC(F)F)c2)ccc1N [Compound A4] | 0 | 0 | 1 | 1 | 2 | 0 | 1 | 3 | 2 | 1 | 4 | 1
CN(C)c1ccc(-c2cncc(F)c2)nc1C(F)(F)F [Compound A38, 6-(5-fluoro-3-pyridyl)-N,N-dimethyl-2-(trifluoromethyl)pyridin-3-amine] | 0 | 2 | 5 | 0 | 5 | 0 | 1 | 4 | 5 | 2 | 5 | 1
Fc1cncc(-c2ccc(N3CCOCC3)c(C(F)(F)F)n2)c1 [Compound A39, 4-[6-(5-fluoro-3-pyridyl)-2-(trifluoromethyl)-3-pyridyl]morpholine] | 0 | 0 | 3 | 0 | 3 | 0 | 0 | 2 | 4 | 2 | 4 | 0
Fc1cncc(-c2ccc(N3CCCC3)c(C(F)(F)F)n2)c1 [Compound A40] | 1 | 1 | 4 | 1 | 4 | 0 | 0 | 3 | 5 | 2 | 5 | 0
COC(=O)c1nc(-c2cncc(F)c2)ccc1N [Compound A41] | 0 | 0 | 2 | 0 | 2 | 0 | 0 | 1 | 2 | 0 | 2 | 0
